Our source for the IC50 values is paper PMC11952508 (bioRxiv, 2025).

Some targets named below: CLK3 (Homo sapiens, UniProt P49761); CLK1 (Homo sapiens, UniProt P49759); CLK2 (Homo sapiens, UniProt P49760).
Common to all, as to experiment: in vitro NanoGlo kinase activity assay, n=[…]
Type in all cases: biochemical

Chain of CLK1 (P49759 whole entry): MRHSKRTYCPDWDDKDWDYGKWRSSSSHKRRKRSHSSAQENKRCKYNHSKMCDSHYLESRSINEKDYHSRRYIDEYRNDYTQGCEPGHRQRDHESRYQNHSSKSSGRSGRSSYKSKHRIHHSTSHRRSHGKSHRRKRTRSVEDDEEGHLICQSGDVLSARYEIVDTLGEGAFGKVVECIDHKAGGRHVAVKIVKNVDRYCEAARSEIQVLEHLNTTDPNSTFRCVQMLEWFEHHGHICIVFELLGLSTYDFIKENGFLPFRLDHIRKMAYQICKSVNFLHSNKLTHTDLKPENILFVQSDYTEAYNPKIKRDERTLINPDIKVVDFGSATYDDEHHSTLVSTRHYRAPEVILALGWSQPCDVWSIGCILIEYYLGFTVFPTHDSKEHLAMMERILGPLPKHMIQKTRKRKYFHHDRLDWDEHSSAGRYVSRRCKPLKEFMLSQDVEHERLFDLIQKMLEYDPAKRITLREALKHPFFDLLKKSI
Chain of CLK3 (P49761 whole entry): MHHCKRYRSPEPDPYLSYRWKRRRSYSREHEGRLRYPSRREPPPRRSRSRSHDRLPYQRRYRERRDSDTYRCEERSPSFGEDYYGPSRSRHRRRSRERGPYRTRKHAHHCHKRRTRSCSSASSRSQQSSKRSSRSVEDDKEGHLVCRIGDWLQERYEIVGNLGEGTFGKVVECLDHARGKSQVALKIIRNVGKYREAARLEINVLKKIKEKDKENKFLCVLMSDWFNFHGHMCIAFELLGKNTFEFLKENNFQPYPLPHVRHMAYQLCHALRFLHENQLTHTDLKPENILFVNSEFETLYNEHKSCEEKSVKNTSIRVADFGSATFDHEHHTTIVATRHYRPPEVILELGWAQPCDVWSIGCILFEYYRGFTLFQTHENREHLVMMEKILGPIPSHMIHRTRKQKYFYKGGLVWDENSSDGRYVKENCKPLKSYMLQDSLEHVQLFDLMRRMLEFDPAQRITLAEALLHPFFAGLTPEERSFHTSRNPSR
Chain of CLK2 (P49760 whole entry): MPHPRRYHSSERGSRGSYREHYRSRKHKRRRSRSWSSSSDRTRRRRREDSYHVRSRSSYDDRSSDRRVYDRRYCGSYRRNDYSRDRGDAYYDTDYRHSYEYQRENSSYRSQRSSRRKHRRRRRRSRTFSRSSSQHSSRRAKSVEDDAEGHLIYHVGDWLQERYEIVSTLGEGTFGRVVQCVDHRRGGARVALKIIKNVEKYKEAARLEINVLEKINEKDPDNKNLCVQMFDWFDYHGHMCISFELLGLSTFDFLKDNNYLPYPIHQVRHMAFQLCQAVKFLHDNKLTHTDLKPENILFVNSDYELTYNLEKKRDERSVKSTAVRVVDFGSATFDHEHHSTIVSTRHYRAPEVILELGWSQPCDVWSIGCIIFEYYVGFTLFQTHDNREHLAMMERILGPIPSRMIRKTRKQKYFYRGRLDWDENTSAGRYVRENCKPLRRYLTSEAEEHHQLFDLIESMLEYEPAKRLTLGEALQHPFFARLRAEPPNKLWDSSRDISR

As for `O=C(Nc1cc(C2CCCC2)n[nH]1)c1ccc2c(c1)[nH]c(=O)n2C1CCCC1` [SR-1815], the IC50 (as a rule, the concentration that inhibits the measured activity by half) against CLK3 worked out at 6.8 µM; against CLK1, 0.446 µM; against CLK2, 0.605 µM.
